Experimental data from patent US20260166128A1, “HUMAN AMYLIN ANALOG, AND DERIVATIVE THEREOF AND USE THEREOF” (priority 2022, published 2026).
Numbered stars: 1 amine (or outer) side, 2 acyl side, 3 side chain; on linkers, the order of the positions; unused ones are H or OH. Bridge positions count the residues as written; N and C are the ends. Square brackets hold non-standard residues; d marks the D form. Side chains are listed from the residue outwards. Peptide text beside a SMILES is read from it. * marks the point of attachment. C20 diacid = O=C(O)CCCCCCCCCCCCCCCCCCC(=O)*; C18 diacid = O=C(O)CCCCCCCCCCCCCCCCC(=O)*; γGlu = O=C(O)[C@H](CCC(=O)[*:2])N[*:1]; Hyp = O=C(O)[C@@H]1C[C@@H](O)CN1; AEEA = NCCOCCOCC(=O)O

Columns and labels:
[1] = target: T1, human amylin receptor (Homo sapiens, UniProt O60896+P30988); experiment: Luciferase assay of amylin derivatives in amylin receptor/CRE-luc CHO cell line; assay type: cell-based; conditions: CHO-K1/Ga15/AMY3 CRE-luc cells, 24 hours incubation, F12 medium containing 10% FBS; read-out: EC50
T1 construct: host or cells: CHO-K1/Ga15/AMY3 cells, further stably transfected with a CRE-luciferase plasmid
T1 sequence (P30988 25-474): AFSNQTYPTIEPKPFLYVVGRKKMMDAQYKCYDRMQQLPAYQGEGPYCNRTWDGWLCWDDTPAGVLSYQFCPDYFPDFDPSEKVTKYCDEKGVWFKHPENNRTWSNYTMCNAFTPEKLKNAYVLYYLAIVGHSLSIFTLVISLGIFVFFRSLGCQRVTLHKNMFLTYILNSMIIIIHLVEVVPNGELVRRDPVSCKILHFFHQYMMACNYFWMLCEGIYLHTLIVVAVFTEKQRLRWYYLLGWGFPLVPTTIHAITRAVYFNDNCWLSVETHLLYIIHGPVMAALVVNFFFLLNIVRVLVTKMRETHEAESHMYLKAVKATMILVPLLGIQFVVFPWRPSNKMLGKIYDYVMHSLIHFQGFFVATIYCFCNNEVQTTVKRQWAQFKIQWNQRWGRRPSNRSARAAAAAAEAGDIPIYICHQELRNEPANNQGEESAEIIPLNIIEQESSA
T1 sequence (O60896 24-148 partner): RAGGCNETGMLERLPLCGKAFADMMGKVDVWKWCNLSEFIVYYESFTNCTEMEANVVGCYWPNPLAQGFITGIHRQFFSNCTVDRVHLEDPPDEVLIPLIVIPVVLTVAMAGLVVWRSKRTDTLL
Procedure: The experiment was intended to detect the activity or efficacy of the amylin derivatives on a human amylin receptor in vitro by luciferase assay.
50 μL of growth medium (F12 medium containing 10% FBS) was added into each well of a white 96-well plate, and the stably transfected amylin/CRE-lue CHO cells were inoculated into the white 96-well plate at a density of about 20,000 cells/well for activity determination.

[2] = Freeze-thaw stability of derivatives (freeze-thaw yield by liquid chromatography); assay type: physicochemical; conditions: for Dissolution property: appearance after dissolution at 0.2 mg/ml in 20 mM phosphate buffer solution (PB) (pH 7.0); for Freeze storage property: appearance after overnight storage at −20° C. and thawing to room temperature, 0.2 mg/ml in 20 mM PB (pH 7.0); for Freeze storage yield: concentration of polypeptide after freezing and thawing / concentration before, by liquid chromatography, −20° C. overnight
How it was run: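 Lyophilised peptide derivative dissolved at 0.2 mg/ml in 20 mM phosphate buffer, pH 7.0, frozen overnight at −20° C, then thawed at room temperature. Peptide concentration before and after freeze-thaw measured by reversed-phase HPLC on centrifuged supernatant; yield = post-thaw/pre-thaw concentration.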

SMILES | EC50 [1] [nM] | Dissolution property [2] | Freeze storage property [2] | Freeze storage yield [2] [%]
CC[C@H](C)[C@H](NC(=O)[C@@H]1CCCN1C(=O)CNC(=O)[C@H](CC(C)C)NC(=O)[C@H](CC(N)=O)NC(=O)[C@H](CC(N)=O)NC(=O)[C@H](CCCCNC(=O)CC[C@H](NC(=O)CCCCCCCCCCCCCCCCCCC(=O)O)C(=O)O)NC(=O)[C@H](CO)NC(=O)[C@H](Cc1c[nH]cn1)NC(=O)[C@H](CCCNC(=N)N)NC(=O)[C@H](CC(C)C)NC(=O)[C@H](Cc1ccccc1)NC(=O)[C@H](CC(=O)O)NC(=O)[C@H](C)NC(=O)[C@H](CC(C)C)NC(=O)[C@H](CCCNC(=N)N)NC(=O)[C@H](CCC(N)=O)NC(=O)[C@@H](NC(=O)[C@H](C)NC(=O)[C@@H]1CSSC[C@H](NC(=O)[C@@H](N)CCCNC(=N)N)C(=O)N[C@@H](CC(N)=O)C(=O)N[C@@H]([C@@H](C)O)C(=O)N[C@@H](C)C(=O)N[C@@H]([C@@H](C)O)C(=O)N1)[C@@H](C)O)C(=O)N[C@@H](CC(C)C)C(=O)N1CCC[C@H]1C(=O)N1CCC[C@H]1C(=O)N[C@H](C(=O)N[C@@H](CC(N)=O)C(=O)N[C@H](C(=O)NCC(=O)N[C@@H](CO)C(=O)N[C@@H](CC(N)=O)C(=O)N[C@H](C(=O)N1C[C@H](O)C[C@H]1C(N)=O)[C@@H](C)O)C(C)C)[C@@H](C)O [PD094] (H-RCNTATCATQRLADFLRHSK([γGlu-C20 diacid])NNLGPILPPTNVGSNT[Hyp]-NH2; disulfide 2-7 (inferred); N-terminus assumed) | 0.034 | Clear | Clear | 102.94
CC[C@H](C)[C@H](NC(=O)[C@@H]1CCCN1C(=O)CNC(=O)[C@H](CC(C)C)NC(=O)[C@H](CC(N)=O)NC(=O)[C@H](CCCCNC(=O)COCCOCCNC(=O)COCCOCCNC(=O)CC[C@H](NC(=O)CCCCCCCCCCCCCCCCC(=O)O)C(=O)O)NC(=O)[C@H](CO)NC(=O)[C@H](CO)NC(=O)[C@H](Cc1c[nH]cn1)NC(=O)[C@H](CCCNC(=N)N)NC(=O)[C@H](CC(C)C)NC(=O)[C@H](Cc1ccccc1)NC(=O)[C@H](CC(=O)O)NC(=O)[C@H](C)NC(=O)[C@H](CC(C)C)NC(=O)[C@H](CCCNC(=N)N)NC(=O)[C@H](CCC(N)=O)NC(=O)[C@@H](NC(=O)[C@H](C)NC(=O)[C@@H]1CSSC[C@H](NC(=O)[C@@H](N)CCCNC(=N)N)C(=O)N[C@@H](CC(N)=O)C(=O)N[C@@H]([C@@H](C)O)C(=O)N[C@@H](C)C(=O)N[C@@H]([C@@H](C)O)C(=O)N1)[C@@H](C)O)C(=O)N[C@@H](CC(C)C)C(=O)N1CCC[C@H]1C(=O)N1CCC[C@H]1C(=O)N[C@H](C(=O)N[C@@H](CC(N)=O)C(=O)N[C@H](C(=O)NCC(=O)N[C@@H](CO)C(=O)N[C@@H](CC(N)=O)C(=O)N[C@H](C(=O)N1C[C@H](O)C[C@H]1C(N)=O)[C@@H](C)O)C(C)C)[C@@H](C)O [PD093] (H-RCNTATCATQRLADFLRHSSK([AEEA-AEEA-γGlu-C18 diacid])NLGPILPPTNVGSNT[Hyp]-NH2; disulfide 2-7 (inferred); N-terminus assumed) | 0.019 | Clear | Clear | 99.86
